Reference: US20250114460A1, “NOVEL PLK1 DEGRADATION INDUCING COMPOUND” (UPPTHERA, INC., priority 2021, published 2025)

Tests used:
Assay type in all cases: cell-based
MRC-5 cell line = test: Cell viability assay for MRC-5 cell line (EZ-Cytox); conditions: Homo sapiens, MRC5, 120 h; MRC-5 normal cell line, 5 days, 10000 nM to 1.52 nM; N.D. = no cytotoxicity until 10 μM; read-out: Activity: IC50 value of Exemplary Compound to MRC-5 cell line
Method: 4. Cell Viability Assay for MRC-5 Cell Line
(1) Culture of MRC-5 Cell Line
Passage of cultured cells was maintained within P15.
(2) Treatment of Compounds of the Present Invention
Then, it was cultured in 37° C.
(3) Cytotoxicity Experiment
CO2 incubator for 4 hours.

NCI-H526 cell line = test: Cell viability assay for H526 cell (EZ-Cytox); conditions: Homo sapiens, NCI-H526, 120 h; H526 cells, 5 days, 3000 nM to 0.46 nM
Summary of the method: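 Read-out was EZ-Cytox colorimetric absorbance at 450 nm, taken after brief plate shaking, with IC50 derived. Before reading, H526 cells had been cultured with test compound for 5 days.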

PLK1 = molecular target: T1, PLK1 (Homo sapiens, UniProt P53350); test: Luciferase assay for PLK1 in HeLa LgBit (Plk1-HiBit KI) cell line; conditions: 300 nM compound, luminescence after 9 hours
T1 construct: endogenous in cells; host or cells: HeLa LgBit (Plk1-HiBit KI): HeLa stably expressing LgBit, with a CRISPR/Cas9 knock-in of HiBit at the endogenous PLK1 locus
Summary of the method: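 Luminescence, followed in real time after adding compound at 300 nM and Endurazine substrate, is reported relative to DMSO-treated wells. Cells are a HeLa LgBit line with a Plk1-HiBit knock-in, synchronized by 2 mM thymidine for 24 h, released, and cultured 18 h before treatment.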

T1 sequence (P53350 whole entry): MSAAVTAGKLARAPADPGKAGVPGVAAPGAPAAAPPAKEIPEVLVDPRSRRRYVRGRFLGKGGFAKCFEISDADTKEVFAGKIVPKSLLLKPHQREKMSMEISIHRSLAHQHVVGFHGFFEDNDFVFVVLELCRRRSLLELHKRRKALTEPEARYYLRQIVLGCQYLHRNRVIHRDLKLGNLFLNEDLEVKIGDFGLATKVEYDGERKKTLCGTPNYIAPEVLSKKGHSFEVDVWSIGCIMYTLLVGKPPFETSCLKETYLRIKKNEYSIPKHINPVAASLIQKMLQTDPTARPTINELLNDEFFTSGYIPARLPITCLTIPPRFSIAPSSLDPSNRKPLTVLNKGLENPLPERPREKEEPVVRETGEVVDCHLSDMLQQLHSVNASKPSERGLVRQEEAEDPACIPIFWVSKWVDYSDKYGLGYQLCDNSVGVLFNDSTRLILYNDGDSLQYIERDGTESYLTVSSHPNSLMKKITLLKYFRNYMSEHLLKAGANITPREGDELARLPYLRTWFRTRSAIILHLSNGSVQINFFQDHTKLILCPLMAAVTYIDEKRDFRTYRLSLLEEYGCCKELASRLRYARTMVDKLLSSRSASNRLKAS

`COc1cc(C(=O)N2CCC(N3CC4(CCN(c5cc6c(cc5F)C(=O)N(C5CCC(=O)NC5=O)C6=O)CC4)C3)CC2)ccc1Nc1ncc2c(n1)N(C(C)C)CC(F)(F)C(=O)N2C` (stereo not drawn) [Compound 215, 5-(2-(1-(4-((7,7-difluoro-9-isopropyl-5-methyl-6-oxo-6,7,8,9-tetrahydro-5H-pyrimido[4,5-b][1,4]diazepin-2-yl)amino)-3-methoxybenzoyl)piperidin-4-yl)-2,7-diazaspiro[3.5]nonan-7-yl)-2-(2,6-dioxopiperidin-3-yl)-6-fluoroisoindoline-1,3-dione] was tested, and the IC50 (MRC-5 cell line) was 16.2 µM, the IC50 (NCI-H526 cell line) was under 0.4 µM and the “Activity: ratio of the luminescense value of each Exemplary Compound treatment group to DMSO treatment group” value (shortened to “Activity: ratio”) (PLK1) was “++ (++<0.6)”.
In the case of `COc1cc(C(=O)NN2CCC(N3CC4(CCN(c5cc6c(cc5F)C(=O)N(C5CCC(=O)NC5=O)C6=O)CC4)C3)CC2)ccc1Nc1ncc2c(n1)N(C(C)C)CC(F)(F)C(=O)N2C` (stereo not drawn) [Compound 216, 4-((7,7-difluoro-9-isopropyl-5-methyl-6-oxo-6,7,8,9-tetrahydro-5H-pyrimido[4,5-b][1,4]diazepin-2-yl)amino)-N-(4-(7-(2-(2,6-dioxopiperidin-3-yl)-6-fluoro-1,3-dioxoisoindolin-5-yl)-2,7-diazaspiro[3.5]nonan-2-yl)piperidin-1-yl)-3-methoxybenzamide], the IC50 (MRC-5 cell line) is reported as 27 µM, the IC50 (NCI-H526 cell line) is reported as under 0.2 µM and the “Activity: ratio” value (PLK1) is reported as “++ (++<0.6)”.
In the case of `COc1cc(C(=O)NN2CCC(N3CC4(CCN(c5cc6c(cc5F)C(=O)N(C5CCC(=O)NC5=O)C6=O)CC4)C3)CC2)c(F)cc1Nc1ncc2c(n1)N(C(C)C)CC(F)(F)C(=O)N2C` (stereo not drawn) [Compound 217, 4-((7,7-difluoro-9-isopropyl-5-methyl-6-oxo-6,7,8,9-tetrahydro-5H-pyrimido[4,5-b][1,4]diazepin-2-yl)amino)-N-(4-(7-(2-(2,6-dioxopiperidin-3-yl)-6-fluoro-1,3-dioxoisoindolin-5-yl)-2,7-diazaspiro[3.5]nonan-2-yl)piperidin-1-yl)-2-fluoro-5-methoxybenzamide], the IC50 (MRC-5 cell line) is reported as 16.4 µM, the IC50 (NCI-H526 cell line) is reported as under 0.4 µM and the “Activity: ratio” value (PLK1) is reported as “++ (++<0.6)”.
`COc1cc(C(=O)NN2CCC(N3CC4(CCN(c5ccc6c(c5)CN(C5CCC(=O)NC5=O)C6=O)CC4)C3)CC2)ccc1Nc1ncc2c(n1)N(C(C)C)CC(F)(F)C(=O)N2C` (stereo not drawn) [Compound 219, 4-((7,7-difluoro-9-isopropyl-5-methyl-6-oxo-6,7,8,9-tetrahydro-5H-pyrimido[4,5-b][1,4]diazepin-2-yl)amino)-N-(4-(7-(2-(2,6-dioxopiperidin-3-yl)-1-oxoisoindolin-5-yl)-2,7-diazaspiro[3.5]nonan-2-yl)piperidin-1-yl)-3-methoxybenzamide] was tested, and the IC50 (MRC-5 cell line) was 13 µM, the IC50 (NCI-H526 cell line) was under 0.03 µM and the “Activity: ratio” value (PLK1) was “++ (++<0.6)”.
